Experimental data taken from publication PMC9953967, “Discovery of Novel Bioactive Tanshinones and Carnosol Analogues against Breast Cancer” (Cancers, 2023).
Like-named read-outs stand apart in the source and are kept apart here.

Key:
[1] = tested on: several cell models of breast cancer; set-up: method as in PMID 26241873; settings: read-out: EC50 antiproliferative activity; cited from earlier work
[2] = tested on: MDA-MB231; set-up: method as in PMID 26241873; settings: cited from earlier work
[3] = tested on: T47D; assay: CellTiterGlo luminescent cell viability assay, T47D; settings: Homo sapiens, 72 h
Method: (§1) A cell proliferation assay was performed using the CellTiterGlo (CTG, Promega Corp., Madison, WI, USA) luminescent cell viability assay kit. MDA-MB231 cells were seeded into 96-well plates at concentrations experimentally determined to ensure logarithmic growth during the duration of the experiment and to prevent adverse effects on cell growth by DMSO exposure. The plates were incubated 12 h before treatment. […] The final concentration of DMSO was 0.3% (v/v) in each well. The positive control used was staurosporine (1 μM) and a toxic quinolone generated inhouse, as kill-all controls, and the negative control used was cholesterol. […] The plates were incubated for 72 h and then quenched with CTG at 50 μL per well at RT. Plates were then incubated at RT for 20 min and centrifuged at 1000 rpm for 1 min. Luminescence was read on a CLARIOstar Plus plate reader (BMG LabTech, Ortenberg, Germany). The cell viability assay was also performed in the non-neoplastic cell line BJ, which was incubated with compounds, as mentioned in cell viability assay (CTG). The mean luminescence of each experimental treatment group was normalized as a percentage of the mean intensity of untreated controls. EC50 values were calculated from dose-response curve-fitting via non-linear regression using GraphPad Prism 9.0 (GraphPad Software, San Diego, CA, USA) (Figure S1).

[4] = tested on: MCF07; assay: CellTiterGlo luminescent cell viability assay, MCF07
Method: as §1

[5] = tested on: SUM149; assay: CellTiterGlo luminescent cell viability assay, SUM149
Method: as §1

[6] = tested on: MDA-MB231; assay: CellTiterGlo luminescent cell viability assay, MDA-MB231
Method: as §1

[7] = CellTiterGlo cell viability assay, non-neoplastic cell line BJ; settings: human, BJ cells (non-neoplastic, non-tumorigenic cell line), Cytotoxicity IC50 BJ, 72 h incubation, CellTiter-Glo, mean ± SD
Method: as §1

[8] = in vitro; settings: human, Cytotoxicity IC50 BJ
Method: as §1

[9] = tested on: HBL-100 and T-47D; set-up: method as in PMID 30840453; settings: two breast cancer cell lines HBL-100 and T-47D, SRB assay; cited from earlier work
[10] = tested on: MDA-MB231; set-up: method as in PMID 30793595; settings: read-out: Antiproliferative activity, sulforhodamine B assay, MDA-MB231; cited from earlier work
[11] = tested on: MCF-7; set-up: method as in PMID 30793595; settings: read-out: Antiproliferative activity, sulforhodamine B assay, MCF-7; cited from earlier work
[12] = tested on: non-tumorigenic cell line BJ; assay: CellTiterGlo cell viability assay, non-neoplastic cell line BJ; settings: read-out: Cytotoxicity IC50 BJ, 72 h incubation, CellTiter-Glo, mean ± SD
Method: as §1

[13] = Ferric Reducing Antioxidant Power (FRAP) assay; settings: compounds at 100 μM; positive control ascorbic acid 1 mM
Method: An antioxidant evaluation of the compounds was performed using the Ferric Reducing Antioxidant Power (FRAP) Assay Colorimetric Kit (ab234626, Abcam, Cambridge, UK) following the manufacturers’ instructions. Briefly, FRAP reagents were mixed with compounds at 100 μM in 96-well plates, and then reacted for 10 min at 37 °C in the dark. Ascorbic acid was provided as the positive control (1mM). After incubation, the absorbance was read using a microplate reader (CLARIOstar Plus, BMG LabTech, Ortenberg, Germany) at 594 nm. FRAP [19] was quantified using a reagent calibration curve (Y = 0.039X + 0.002, R^2 = 0.9978) and calculated as nmol Ferrous equivalents.

[14] = tested on: MDA-MB231; assay: Propidium iodide (PI) assay with Hoechst counterstain; format: cell-based, human; settings: MDA-MB231, 48 h, 25 μM
Method: Propidium iodide (PI) assay was performed to complement the viability assay. The assay was conducted with MDA-MB231 cancer cell models seeded in 48-well plates (Clear, Corning#3548) and cultured for 12 h, then treated for 48 h. Cells were fixed with cold methanol, and stained (0.4% PI, Sigma-Aldrich, Co., St. Louis, MO, USA). Fluorescence was measured and analyzed using Cytation 1 Image Reader (BioTek, Winooski, VT, USA). Cell viability was calculated/plotted as the percentage of surviving cells after treatment relative to the vehicle. For qualitative analysis and visualization, doubling staining was performed using Hoechst dye to stain nuclei.

[15] = tested on: SUM149
Method: as §1

[16] = tested on: MCF07
Method: as §1

[17] = tested on: non-tumorigenic cell line BJ; settings: human, 72 h
Method: as §1

[18] = tested on: T47D; settings: human, 72 h
Method: as §1

[19] = read-out: Cytotoxicity IC50 T47D, 72 h incubation, CellTiter-Glo, mean ± SD
[20] = Homo sapiens, 72 h, read-out: Cytotoxicity IC50 MCF07, 72 h incubation, CellTiter-Glo, mean ± SD
[21] = Homo sapiens, SUM149, 72 h, read-out: Cytotoxicity IC50 SUM149
[22] = Homo sapiens, MDA-MB-231, 72 h, read-out: Cytotoxicity IC50 MDA-MB231, 72 h incubation, CellTiter-Glo, mean ± SD
[23] = read-out: Cytotoxicity IC50 MDA-MB231, 72 h incubation, CellTiter-Glo, mean ± SD

Structure (SMILES) | EC50 [1] | IC50 [3, 19] | IC50 [4, 20] | IC50 [5, 21] | IC50 [6, 22] | IC50 at 72 h [7] | IC50 at 72 h [8] | IC50 [12] | other results
CC(C)c1cc2c(cc1O)[C@@]1(C)CCCC(C)(C)[C@@H]1CC2 [Compound 1, ferruginol] | < 50 µM | > 100 µM | 19 ± 1.5 µM | > 50 µM | 8.3 ± 1.4 µM | > 50 µM | – | – | Inhibition of cell cycle progression at the G2/M phase [2]: 19%; Cell cycle arrest at G0/G1 ([2]; positive control 43%, negative control 48.36%): 50.76%
CC(C)c1cc2c(cc1O)[C@@]1(C)CCC[C@@](C)(CN)[C@@H]1CC2 [Compound 2, 12-hydroxydehydroabietylamine] | – | > 50 µM | 10 ± 1.5 µM | 4.4 ± 0.3 µM | 5.1 ± 0.6 µM | – | 75 ± 6.2 µM | – | –
CC(C)c1cc2c(c(O)c1O)[C@@]13CCCC(C)(C)[C@@H]1C[C@@H]2OC3=O [Compound 4, carnosol] | < 50 µM | – | – | – | – | – | – | – | –
COC(=O)[C@]1(C)CCC[C@]2(C)c3cc(O)c(C(C)C)cc3CC[C@@H]12 [Compound 5, Methyl 12-hydroxyabieta-8,11,13-trien-18-oate] | – | – | – | – | – | – | – | – | GI50 [9]: 9.7 to 19 µM; IC50 [10]: 18.6 µM; IC50 [11]: 5.9 µM
CC(C)c1cc2c(cc1O)[C@@]1(C)CCC[C@@](C)(CN3C(=O)c4ccccc4C3=O)[C@@H]1CC2 [Compound 6, 18-(phthalimid-2-yl)ferruginol] | – | – | – | – | 8.22 ± 0.47 µM | 74.8 ± 5.3 µM | – | 74.8 ± 5.3 µM | IC50 ([3]; read-out: Cytotoxicity IC50 T47D): 29.2 ± 1.5 µM; IC50 ([4]; Homo sapiens, 72 h, read-out: Cytotoxicity IC50 MCF07): 13 ± 0.6 µM; IC50 ([5]; Homo sapiens, SUM149, 72 h, read-out: Cytotoxicity IC50 SUM149, 72 h incubation, CellTiter-Glo, mean ± SD): 4.45 ± 0.2 µM; IC50 ([5]; read-out: Cytotoxicity IC50 SUM149, 72 h incubation, CellTiter-Glo, mean ± SD): 4.4 ± 0.2 µM; IC50 [6, 23]: 8.2 ± 0.5 µM
COC(=O)[C@]1(C)CCC[C@]2(C)C3=C(C=C(C(C)C)C(=O)C3=O)CC[C@@H]12 [Compound 7, Methyl 11,12-Dioxo-abieta-8,13-dien-18-oate] | – | 14.1 ± 0.5 µM | 8.29 ± 0.93 µM | 1.3 ± 0.6 µM | 3.95 ± 0.8 µM | 56.5 ± 6.1 µM | – | 56.5 ± 6.1 µM | Antioxidant potential (FRAP) [13]: significant antioxidant potential; IC50 ([4]; read-out: Cytotoxicity IC50 MCF07, 72 h incubation, CellTiter-Glo, mean ± SD): 8.3 ± 0.9 µM; IC50 [6, 23]: 3.9 ± 0.8 µM
CC(C)C1=CC2=C(C(=O)C1=O)[C@@]1(C)CCC[C@@](C)(CN3C(=O)c4ccccc4C3=O)[C@@H]1CC2 [Compound 8, 11,12-Dioxo-N,N-(phthaloyl)dehydroabietylamine] | – | 18.7 ± 0.3 µM | 2.3 ± 1.1 µM | 1.5 ± 0.4 µM | 2.8 ± 0.4 µM | 35.4 ± 5 µM | – | 35.4 ± 5 µM | Dose-dependent cell death (PI staining) [14]: clearly indicates this dependency
COC(=O)[C@]1(C)CCC[C@]2(C)c3c(cc(C(C)C)c(O)c3O)CC[C@@H]12 [Compound 9, Methyl 11,12-Dihydroxy-dehydroabietate] | – | 14.4 ± 0.6 µM | > 50 µM | > 50 µM | 9.4 ± 0.4 µM | – | 57.6 ± 3 µM | – | Antioxidant potential (FRAP) [13]: significant antioxidant potential; Cytotoxicity IC50 SUM149 [15]: removed the activity; Cytotoxicity IC50 MCF07 [16]: removed the activity; IC50 [17]: 57.6 ± 3 µM; IC50 [10]: 2.7 µM; IC50 [11]: 2.8 µM
CC(C)c1cc2c(c(O)c1O)[C@@]1(C)CCC[C@@](C)(CN3C(=O)c4ccccc4C3=O)[C@@H]1CC2 [Compound 10, 11,12-Dihydroxy-N,N-(phthaloyl)dehydroabietylamine] | – | 8.17 ± 0.44 µM | 4.6 ± 0.6 µM | 1.8 ± 0.2 µM | 2.8 ± 0.2 µM | – | 32.5 ± 5 µM | – | IC50 [18]: 8.2 ± 0.4 µM; IC50 [17]: 32.5 ± 5 µM
CC(C)c1ccc2c(c1)CC[C@H]1[C@](C)(CN)CCC[C@]21C [dehydroabietylamine] | < 50 µM | – | – | – | – | – | – | – | –
